The values below come from US11312724B2 (ASCENTAGE PHARMA (SUZHOU) CO., LTD., priority 2021, dated 2022).

For one assay, the system named is MIA PaCa-2 cell. Put plainly: Cell proliferation assay (Celltiter-Glo), MIA PaCa-2. Type of assay: cell-based. To be noted: Homo sapiens, MIA PaCa-2, 72 h, 3 days. On the procedure:
(§1) Cell Proliferation Assay:
(§2) NCI-H358 cell and MIA PaCa-2 cell was cultured in RPMI-1640 supplemented with 10% FBS in humidified incubator at 37° C., 5% CO2. To asses the effect of Compounds of the Disclosure on cell proliferation, exponentially growing cells (5000 cells/well) were plated onto 96-well plates. After cell seeding, a representative Compounds of the Disclosure were added to the cell media (in concentrations ranging from 0 to 10 μM, 3/dilution series). After 3 days, 30 μL Celltiter-Glo reagent was added, and the luminescent signal was determined according to supplier's instruction. The dose response curves and IC50 values were generated using Prism.
In general terms: Cellular ATP, detected with luciferase, serves as a proxy for viable cell number.

Another assay relates to NCI-H358 cell. Briefly: Cell proliferation assay (Celltiter-Glo), NCI-H358. In kind it is cell-based. Particulars: Homo sapiens, NCI-H358, 72 h, 3 days. The protocol:
as §1, §2

In general, IC50 refers to the midpoint of a concentration-inhibition curve. Read a low IC50 as greater potency in that assay. As to `C=C(F)C(=O)N1CCN(c2nc(OCC3CCC4CCCN43)nc3c2CC[C@@]2(CCc4c(Cl)cccc42)C3)C[C@@H]1CC#N` (stereo partly drawn) [Cpd. No. 52, 2-((2S)-4-((1R)-4-chloro-2′-((hexahydro-1H-pyrrolizin-3-yl)methoxy)-2,3,5′,8′-tetrahydro-6′H-spiro[indene-1,7′-quinazolin]-4′-yl)-1-(2-fluoroacryloyl)piperazin-2-yl)acetonitrile], the results for the IC50 in the assay with MIA PaCa-2 cell and with NCI-H358 cell were 340 nM and 260 nM, respectively.

As for `C=CC(=O)N1CCN(c2nc(OC[C@@H]3CN(C)CCO3)nc3c2CCC2(CCCc4ccccc42)C3)C[C@@H]1CC#N` (stereo partly drawn) [Cpd. No. 20, 2-((2S)-1-acryloyl-4-(2′-(((S)-4-methylmorpholin-2-yl)methoxy)-3,4,5′,8′-tetrahydro-2H,6′H-spiro[naphthalene-1,7′-quinazolin]-4′-yl)piperazin-2-yl)acetonitrile], the figures for the IC50 in the assay on MIA PaCa-2 cell and in the assay on NCI-H358 cell were 46 nM and 72 nM, respectively.

Consider `C=CC(=O)N1C2CCC1CN(c1nc(OC[C@@H]3CCCN3C)nc3c1CCC1(COCc4cccc(F)c41)C3)C2` (stereo partly drawn) [Cpd. No. 29, 1-(3-(5-fluoro-2′-(((S)-1-methylpyrrolidin-2-yl)methoxy)-5′,8′-dihydro-6′H-spiro[isochromane-4,7′-quinazolin]-4′-yl)-3,8-diazabicyclo[3.2.1]octan-8-yl)prop-2-en-1-one], for which the IC50 in the assay on MIA PaCa-2 cell is above 10000 nM; with NCI-H358 cell, 8100 nM.

Consider `C=CC(=O)N1CCN(c2nc(OC[C@@H]3CCCN3C)nc3c2CCC2(CCOc4ccccc42)C3)C[C@@H]1CC#N` (stereo partly drawn) [Cpd. No. 21, 2-((2S)-1-acryloyl-4-(2′-(((S)-1-methylpyrrolidin-2-yl)methoxy)-5′,8′-dihydro-6′H-spiro[chromane-4,7′-quinazolin]-4′-yl)piperazin-2-yl)acetonitrile], for which the IC50 in the assay on MIA PaCa-2 cell was 440 nM; in the assay on NCI-H358 cell, 470 nM.

In the case of `C=CS(=O)(=O)N1CCN(c2nc(OC[C@@H]3CCCN3C)nc3c2CCC2(CCCc4ccccc42)C3)C[C@@H]1CC#N` (stereo partly drawn) [Cpd. No. 16, 2-((2S)-4-(2′-(((S)-1-methylpyrrolidin-2-yl)methoxy)-3,4,5′,8′-tetrahydro-2H,6′H-spiro[naphthalene-1,7′-quinazolin]-4′-yl)-1-(vinylsulfonyl)piperazin-2-yl)acetonitrile], the IC50 with MIA PaCa-2 cell worked out at 2960 nM; in the assay on NCI-H358 cell, 1900 nM.

Regarding `C=C(F)C(=O)N1CCN(c2nc(OCC34CCCN3CCC4)nc3c2CC[C@@]2(CCc4c(Cl)cccc42)C3)C[C@@H]1CC#N` [Cpd. No. 45, 2-((S)-4-((R)-4-chloro-2′-((tetrahydro-1H-pyrrolizin-7a(5H)-yl)methoxy)-2,3,5′,8′-tetrahydro-6′H-spiro[indene-1,7′-quinazolin]-4′-yl)-1-(2-fluoroacryloyl)piperazin-2-yl)acetonitrile], the results for the IC50 in the assay with MIA PaCa-2 cell and with NCI-H358 cell were 2.8 nM and 7.6 nM, respectively.

As for `C=CC(=O)N1CCN(c2nc(OCC3CCC4(CC4)N3C)nc3c2CC[C@@]2(CCc4c(Cl)cccc42)C3)C[C@@H]1CC#N` (stereo partly drawn) [Cpd. No. 46, 2-((2S)-1-acryloyl-4-((1R)-4-chloro-2′-((4-methyl-4-azaspiro[2.4]heptan-5-yl)methoxy)-2,3,5′,8′-tetrahydro-6′H-spiro[indene-1,7′-quinazolin]-4′-yl)piperazin-2-yl)acetonitrile], the IC50 with MIA PaCa-2 cell amounted to 15 nM; in the assay on NCI-H358 cell, 25 nM.

`CN1CCC[C@H]1COc1nc2c(c(N3CCN(C(=O)/C=C/CF)[C@@H](CC#N)C3)n1)CCC1(CCc3ccccc31)C2` (stereo partly drawn) [Cpd. No. 43, 2-((2S)-1-((E)-4-fluorobut-2-enoyl)-4-(2′-(((S)-1-methylpyrrolidin-2-yl)methoxy)-2,3,5′,8′-tetrahydro-6′H-spiro[indene-1,7′-quinazolin]-4′-yl)piperazin-2-yl)acetonitrile]: the IC50 is 130 nM with MIA PaCa-2 cell and 120 nM in the assay on NCI-H358 cell.

`C=C(F)C(=O)N1CCN(c2nc(OC[C@@H]3CCCN3C)nc3c2CCC2(COCc4cccc(F)c42)C3)C[C@@H]1CC#N` (stereo partly drawn): the IC50 in the assay on MIA PaCa-2 cell worked out at 810 nM; in the assay with NCI-H358 cell, 660 nM.

Take `C=CC(=O)N1CCN(c2nc(OCCCN(C)C)nc3c2CCC2(CCCc4ccccc42)C3)C[C@@H]1CC#N` (stereo partly drawn) [Cpd. No. 17, 2-((2S)-1-acryloyl-4-(2′-(3-(dimethylamino)propoxy)-3,4,5′,8′-tetrahydro-2H,6′H-spiro[naphthalene-1,7′-quinazolin]-4′-yl)piperazin-2-yl)acetonitrile]: the IC50 worked out at 54 nM in the assay with MIA PaCa-2 cell and 100 nM with NCI-H358 cell.

Take `C=CC(=O)N1CCN(c2nc(OC[C@@H]3CCCN3C)nc3c2CCC2(CCCc4ccccc42)C3)C[C@H]1CC#N` (stereo partly drawn) [Cpd. No. 3, 2-((2R)-1-acryloyl-4-(2′-(((S)-1-methylpyrrolidin-2-yl)methoxy)-3,4,5′,8′-tetrahydro-2H,6′H-spiro[naphthalene-1,7′-quinazolin]-4′-yl)piperazin-2-yl)acetonitrile]: the IC50 with MIA PaCa-2 cell came to 140 nM; with NCI-H358 cell, 290 nM.

For the compound `CN(C)C/C=C/C(=O)N1CCN(c2nc(OC[C@@H]3CCCN3C)nc3c2CCC2(CCCc4ccccc42)C3)C[C@@H]1CC#N` (stereo partly drawn) [Cpd. No. 15, 2-((2S)-1-((E)-4-(dimethylamino)but-2-enoyl)-4-(2′-(((S)-1-methylpyrrolidin-2-yl)methoxy)-3,4,5′,8′-tetrahydro-2H,6′H-spiro[naphthalene-1,7′-quinazolin]-4′-yl)piperazin-2-yl)acetonitrile], the IC50 in the assay on MIA PaCa-2 cell turned out to be 290 nM; in the assay with NCI-H358 cell, 510 nM.

On to `C=CC(=O)N1CCN(c2nc(OC[C@@H]3CCCN3C)nc3c2CCC2(CCOc4c(Cl)cccc42)C3)C[C@@H]1CC#N` (stereo partly drawn) [Cpd. No. 22, 2-((2S)-1-acryloyl-4-(8-chloro-2′-(((S)-1-methylpyrrolidin-2-yl)methoxy)-5′,8′-dihydro-6′H-spiro[chromane-4,7′-quinazolin]-4′-yl)piperazin-2-yl)acetonitrile], for which the IC50 came to 490 nM in the assay on MIA PaCa-2 cell and 940 nM with NCI-H358 cell.

For the compound `C=C(F)C(=O)N1CCN(c2nc(OCC34CCCN3CC(F)(F)C4)nc3c2CC[C@@]2(CCc4c(Cl)cccc42)C3)C[C@@H]1CC#N` (stereo partly drawn) [Cpd. No. 51, 2-((2S)-4-((1R)-4-chloro-2′-((2,2-difluorotetrahydro-1H-pyrrolizin-7a(5H)-yl)methoxy)-2,3,5′,8′-tetrahydro-6′H-spiro[indene-1,7′-quinazolin]-4′-yl)-1-(2-fluoroacryloyl)piperazin-2-yl)acetonitrile], the IC50 in the assay on MIA PaCa-2 cell is 110 nM; with NCI-H358 cell, 52 nM.

Take `C=CC(=O)N1CCN(c2nc(OC[C@@H]3CCCN3C)nc3c2CCC2(C3)c3cccc(F)c3C3CC32)C[C@@H]1CC#N` (stereo partly drawn) [Cpd. No. 39, 2-((2S)-1-acryloyl-4-(2-fluoro-2′-(((S)-1-methylpyrrolidin-2-yl)methoxy)-1a,5′,6a,8′-tetrahydro-1H,6′H-spiro[cyclopropa[a]indene-6,7′-quinazolin]-4′-yl)piperazin-2-yl)acetonitrile]: the results for the half-maximal inhibitory concentration (IC50) with MIA PaCa-2 cell and with NCI-H358 cell were 370 nM and 670 nM, respectively.

As for `C=CC(=O)N1CCN(c2nc(OC[C@@H]3CCCN3C)nc3c2CCC2(C3)CC3(CC3)c3c(F)cccc32)C[C@@H]1CC#N` (stereo partly drawn) [Cpd. No. 38, 2-((2S)-1-acryloyl-4-(4′-fluoro-2″-(((S)-1-methylpyrrolidin-2-yl)methoxy)-5″,8″-dihydro-2′H,6″H-dispiro[cyclopropane-1,3′-indene-1′,7″-quinazolin]-4″-yl)piperazin-2-yl)acetonitrile], the results for the IC50 with MIA PaCa-2 cell and in the assay with NCI-H358 cell were 93 nM and 290 nM, respectively.

On to `C=C(F)C(=O)N1CCN(c2nc(OC[C@@H]3CCCN3C)nc3c2CCC2(COC(C)c4c(F)cccc42)C3)C[C@@H]1CC#N` (stereo partly drawn) [Cpd. No. 36, 2-((2S)-4-(8-fluoro-1-methyl-2′-(((S)-1-methylpyrrolidin-2-yl)methoxy)-5′,8′-dihydro-6′H-spiro[isochromane-4,7′-quinazolin]-4′-yl)-1-(2-fluoroacryloyl)piperazin-2-yl)acetonitrile], for which the IC50 in the assay on MIA PaCa-2 cell was found to be 160 nM; with NCI-H358 cell, 260 nM.

As for `C=CC(=O)N1CCN(c2nc(OC[C@@H]3[C@H]4C[C@H]4CN3C)nc3c2CC[C@@]2(CCc4c(Cl)cccc42)C3)C[C@@H]1CC#N` (single isomer, unassigned) [Cpd. No. 48], the IC50 in the assay on MIA PaCa-2 cell came out at 4.3 nM; in the assay with NCI-H358 cell, 6 nM.

For the compound `C=CC(=O)N1CCN(c2nc(OC[C@@H]3CCCN3C)nc3c2CCC2(C3)CN(C)C(=O)c3ccccc32)C[C@@H]1CC#N` (stereo partly drawn) [Cpd. No. 37, 2-((2S)-1-acryloyl-4-(2-methyl-2′-(((S)-1-methylpyrrolidin-2-yl)methoxy)-1-oxo-2,3,5′,8′-tetrahydro-1H,6′H-spiro[isoquinoline-4,7′-quinazolin]-4′-yl)piperazin-2-yl)acetonitrile], the IC50 in the assay with MIA PaCa-2 cell and with NCI-H358 cell was above 10000 nM in each case.

Turning to `C=CC(=O)N1CCN(c2nc(OC[C@@H]3CCCN3C)nc3c2CCC2(C3)CS(=O)(=O)Cc3ccccc32)C[C@@H]1CC#N` (stereo partly drawn) [Cpd. No. 31, 2-((2S)-1-acryloyl-4-(2′-(((S)-1-methylpyrrolidin-2-yl)methoxy)-2,2-dioxido-5′,8′-dihydro-6′H-spiro[isothiochromane-4,7′-quinazolin]-4′-yl)piperazin-2-yl)acetonitrile], the IC50 in the assay on MIA PaCa-2 cell and with NCI-H358 cell was above 10000 nM in each case.

As to `C=CC(=O)N1CCN(c2nc(OCCCN3CCOCC3)nc3c2CCC2(CCCc4ccccc42)C3)C[C@@H]1CC#N` (stereo partly drawn) [Cpd. No. 19, 2-((2S)-1-acryloyl-4-(2′-(3-morpholinopropoxy)-3,4,5′,8′-tetrahydro-2H,6′H-spiro[naphthalene-1,7′-quinazolin]-4′-yl)piperazin-2-yl)acetonitrile], the IC50 with MIA PaCa-2 cell was 110 nM; with NCI-H358 cell it was 130 nM.
